Consider 16 compounds from ChEMBL document CHEMBL3352002, “Discovery of diethyl 2,5-diaminothiophene-3,4-dicarboxylate derivatives as potent anticancer and antimicrobial agents and screening of anti-diabetic activity: synthesis and in vitro biological evaluation. Part 1” (Eur J Med Chem, 2014).

Assay [1] relates to T47D. Briefly: Anticancer activity against human T47D cells assessed as inhibition of tumor cell proliferation after 48 hrs by MTT assay. The class given is functional, cell-based.
In assay [2] the target is T1, Tyrosine-protein phosphatase non-receptor type 1 (Homo sapiens, UniProt P18031).
T1 sequence (P18031 whole entry): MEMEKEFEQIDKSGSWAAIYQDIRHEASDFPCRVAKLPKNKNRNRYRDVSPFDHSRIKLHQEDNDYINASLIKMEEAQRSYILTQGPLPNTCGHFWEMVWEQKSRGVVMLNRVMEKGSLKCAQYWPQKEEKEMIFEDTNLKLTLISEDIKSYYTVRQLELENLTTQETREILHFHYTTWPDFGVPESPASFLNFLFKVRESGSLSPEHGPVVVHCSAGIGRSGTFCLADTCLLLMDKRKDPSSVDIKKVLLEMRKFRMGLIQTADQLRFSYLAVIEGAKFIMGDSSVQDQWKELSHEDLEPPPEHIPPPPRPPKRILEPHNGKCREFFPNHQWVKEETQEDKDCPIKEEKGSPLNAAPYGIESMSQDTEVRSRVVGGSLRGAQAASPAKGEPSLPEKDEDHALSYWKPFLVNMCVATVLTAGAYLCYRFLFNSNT
Nature of the assay: Inhibition of PTP-1B (unknown origin) using pNPP substrate measured after 30 mins.

Assay [3] deals with Staphylococcus aureus. Briefly: Antimicrobial activity against Staphylococcus aureus ATCC 6538 assessed as inhibition zone after 24 hrs by agar well diffusion method. The class given is functional. (A growth-free zone around the sample is the usual read-out of agar diffusion tests.)
Assay [4] has as its system HeLa. Briefly: Anticancer activity against human HeLa cells assessed as inhibition of tumor cell proliferation after 48 hrs by MTT assay. The format is functional, cell-based.
Assay [5] deals with Escherichia coli. Nature of the assay: Antimicrobial activity against Escherichia coli ATCC 11229 assessed as inhibition zone after 24 hrs by agar well diffusion method. The class given is functional.
Assay [6] concerns MCF7. Nature of the assay: Anticancer activity against human MCF7 cells assessed as inhibition of tumor cell proliferation after 48 hrs by MTT assay. The class given is functional, cell-based. The note with it: MCF7, 48 h.
In assay [7] the test system is Candida albicans. Briefly: Antimicrobial activity against Candida albicans ATCC 10231 assessed as inhibition zone after 24 hrs by agar well diffusion method. The format is functional.
The test system of assay [8] is Ishikawa. Briefly: Anticancer activity against human Ishikawa cells assessed as inhibition of tumor cell proliferation after 48 hrs by MTT assay. The class given is functional, cell-based. Background: Tetrazolium dyes change colour on reduction, which living cells bring about.

With `CCOC(=O)c1c(N)sc(N)c1C(=O)OCC`, the concentration for half-maximal inhibition (IC50) in assay [1] was 11.6 µM; in assay [2] it was “Not Active”; in assay [4] it was 40.3 µM; in assay [6] it was 18.6 µM; in assay [8], 46.9 µM. The “diameter of the inhibition zone (DIZ)” value in assay [3] is listed as 10 mm; in assay [5], below 5.5 mm; in assay [7] it was below 5.5 mm.

With `CCOC(=O)c1c(N)sc(/N=C/c2ccccc2)c1C(=O)OCC`, the IC50 is 30.3 µM in assay [1]; “Not Active” in assay [2]; 31.2 µM in assay [4]; 6.1 µM in assay [6]; 37.9 µM in assay [8]. Further, the “diameter of the inhibition zone (DIZ)” value is 9 mm in assay [3], below 5.5 mm in assay [5] and 8 mm in assay [7].

Consider `CCOC(=O)c1c(N)sc(/N=C/c2ccc([N+](=O)[O-])cc2)c1C(=O)OCC`, for which the concentration for half-maximal inhibition (IC50) in assay [1] came to 2.3 µM; in assay [2] (read-out: IC50), 6.43 µM; in assay [4] it was 14.1 µM; in assay [6], 1.3 µM; in assay [8] it was 141 µM. In addition, the “diameter of the inhibition zone (DIZ)” value in assay [3] was 8.5 mm; in assay [5], below 5.5 mm; in assay [7] it was below 5.5 mm.

For the compound `CCOC(=O)c1c(N)sc(/N=C/c2ccc(Cl)cc2)c1C(=O)OCC`, the IC50 in assay [1] was 12.1 µM; in assay [2], “Not Active”; in assay [4], 25.2 µM; in assay [6], 6.8 µM; in assay [8], 27.1 µM. For the same compound, the “diameter of the inhibition zone (DIZ)” value in assay [3], in assay [5] and in assay [7] was below 5.5 mm in each case.

Take `CCOC(=O)c1c(N)sc(/N=C/c2ccc(F)cc2)c1C(=O)OCC`: the concentration for half-maximal inhibition (IC50) is 22.5 µM in assay [1]; “Not Active” in assay [2]; 30.8 µM in assay [4]; 22.5 µM in assay [6]; 32.1 µM in assay [8]. For the same compound, the “diameter of the inhibition zone (DIZ)” value in assay [3] is 10 mm; in assay [5], below 5.5 mm; in assay [7], 8 mm.

`CCOC(=O)c1c(N)sc(/N=C/c2ccc(Br)cc2)c1C(=O)OCC`: the concentration for half-maximal inhibition (IC50) in assay [1] is 13.2 µM; in assay [2] (read-out: IC50), 6.54 µM; in assay [4], 25.9 µM; in assay [6], 12.5 µM; in assay [8] it was 46.1 µM. In addition, the “diameter of the inhibition zone (DIZ)” value in assay [3], in assay [5] and in assay [7] was below 5.5 mm in each case.

On to `CCOC(=O)c1c(N)sc(/N=C/c2ccc(OC)cc2)c1C(=O)OCC`, for which the IC50 in assay [1] is 31.9 µM; in assay [2], “Not Active”; in assay [4], 189 µM; in assay [6], 16.2 µM; in assay [8], 108 µM. Also, the results for the “diameter of the inhibition zone (DIZ)” value in assay [3], in assay [5] and in assay [7] were 9 mm, below 5.5 mm and 9 mm, respectively.

Turning to `CCOC(=O)c1c(N)sc(/N=C/c2ccc(C)cc2)c1C(=O)OCC`, the IC50 is 37.2 µM in assay [1]; “Not Active” in assay [2]; 41.9 µM in assay [4]; 8.9 µM in assay [6]; 52.5 µM in assay [8]. The “diameter of the inhibition zone (DIZ)” value is given as 10 mm in assay [3], below 5.5 mm in assay [5] and 8 mm in assay [7].

Take `CCOC(=O)c1c(N)sc(/N=C/c2ccc(N(C)C)cc2)c1C(=O)OCC`: the IC50 in assay [1] was determined as 16.7 µM; in assay [2] (read-out: IC50), 7.32 µM; in assay [4] it was 131 µM; in assay [6], 5.7 µM; in assay [8] it was 73 µM. The “diameter of the inhibition zone (DIZ)” value is recorded as 11.5 mm in assay [3], below 5.5 mm in assay [5] and 8 mm in assay [7].

Consider `CCOC(=O)c1c(N)sc(/N=C/c2ccco2)c1C(=O)OCC`, for which the IC50 is 14.9 µM in assay [1]; “Not Active” in assay [2]; 46.7 µM in assay [4]; 62.2 µM in assay [6]; 69.3 µM in assay [8]. For the same compound, the results for the “diameter of the inhibition zone (DIZ)” value in assay [3], in assay [5] and in assay [7] were 10.5 mm, below 5.5 mm and below 5.5 mm, respectively.

Turning to `CCOC(=O)c1c(N)sc(/N=C/c2ccc([N+](=O)[O-])o2)c1C(=O)OCC`, the IC50 in assay [1] was 16 µM; in assay [2] (read-out: IC50), 7.12 µM; in assay [4], 4.7 µM; in assay [6], 2.4 µM; in assay [8], 7.6 µM. Also, the “diameter of the inhibition zone (DIZ)” value in assay [3] is on record as 22 mm; in assay [5], 16 mm; in assay [7] it was above 22 mm.

For the compound `CCOC(=O)c1c(N)sc(/N=C/c2cccs2)c1C(=O)OCC`, the IC50 came out at 7.1 µM in assay [1]; 14.8 µM in assay [2] (read-out: IC50); 21.3 µM in assay [4]; 26.1 µM in assay [6]; 39.8 µM in assay [8]. Further, the “diameter of the inhibition zone (DIZ)” value in assay [3] was 10 mm; in assay [5] it was below 5.5 mm; in assay [7] it was below 5.5 mm.

For `CCOC(=O)c1c(N)sc(/N=C/c2ccncc2)c1C(=O)OCC`, the concentration for half-maximal inhibition (IC50) in assay [1] was 8.6 µM; in assay [2], “Not Active”; in assay [4], 35.4 µM; in assay [6] it was 92.2 µM; in assay [8] it was 119 µM. Besides, the “diameter of the inhibition zone (DIZ)” value is on record as below 5.5 mm in assay [3], below 5.5 mm in assay [5] and 7 mm in assay [7].

As to `C[C@@H]1[C@H](O)[C@@H](C)/C=C/C=C/C=C/C=C/C=C/C=C/C=C/[C@H](O[C@@H]2O[C@H](C)[C@@H](O)[C@H](N)[C@@H]2O)C[C@@H]2O[C@](O)(C[C@@H](O)C[C@@H](O)[C@H](O)CC[C@@H](O)C[C@@H](O)CC(=O)O[C@H]1C)C[C@H](O)[C@H]2C(=O)O` [AMPHOTERICIN B], in assay [3], the “diameter of the inhibition zone (DIZ)” value was determined as 15 mm.

For `CC1(C)S[C@@H]2[C@H](NC(=O)[C@H](N)c3ccccc3)C(=O)N2[C@H]1C(=O)O` [AMPICILLIN], the “diameter of the inhibition zone (DIZ)” value in assay [5] is recorded as 19 mm; in assay [7] it was 14 mm.

For the compound `COc1cccc2c1C(=O)c1c(O)c3c(c(O)c1C2=O)C[C@@](O)(C(=O)CO)C[C@@H]3O[C@H]1C[C@H](N)[C@H](O)[C@H](C)O1` [DOXORUBICIN], the half-maximal inhibitory concentration (IC50) in assay [1] was determined as 15.5 µM; in assay [4], 7.04 µM; in assay [6] it was 6.75 µM; in assay [8] it was 9.02 µM.

Broadly, the IC50 is the concentration at which inhibition is half-maximal.
